Like-named read-outs stand apart in the source and are kept apart here.
Assays:
[1] = target: T1, human recombinant serotonin (5-Hydroxytryptamine) 5-HT2C receptor (Homo sapiens, UniProt P28335); test: Serotonin 5-HT2C radioligand binding ([3H]Mesulergine); set-up: Inhibition of ligand binding, Ser. 5-HT2C: concentration or dose not given beside the values; conditions: percent inhibition of specific binding
T1 construct: expressed in transfected cells; host or cells: CHO-K1 cells
T1 sequence (P28335 33-458): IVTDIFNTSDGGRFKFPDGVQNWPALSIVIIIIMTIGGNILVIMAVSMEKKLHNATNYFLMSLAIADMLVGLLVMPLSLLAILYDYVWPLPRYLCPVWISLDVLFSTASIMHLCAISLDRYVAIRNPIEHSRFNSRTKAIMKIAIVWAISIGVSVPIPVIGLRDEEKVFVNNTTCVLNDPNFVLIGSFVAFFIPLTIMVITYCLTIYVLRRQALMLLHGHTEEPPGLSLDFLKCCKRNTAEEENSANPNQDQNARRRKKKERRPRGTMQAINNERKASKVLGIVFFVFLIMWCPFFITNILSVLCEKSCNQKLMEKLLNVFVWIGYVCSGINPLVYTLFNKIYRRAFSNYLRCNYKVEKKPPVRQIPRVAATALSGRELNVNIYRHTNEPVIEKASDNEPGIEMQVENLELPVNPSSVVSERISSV
Experimental: Compounds of the invention were incubated with 1 nM [^3H]Mesulergine for 60 minutes at 25° C. Non-specific binding was estimated in the presence of 1 μM Mianserin. Receptor proteins were filtered and washed, the filters were then counted to determine [^3H]Mesulergine specifically bound. […] Biochemical assay results are presented as the percent inhibition of specific binding in Table 6.

[2] = target: T2, human recombinant histamine H2 receptor (Homo sapiens, UniProt P25021); test: Histamine H2 radioligand binding ([125I]Aminopotentidine); conditions: read-out: Inhibition of ligand binding, Hist. H2
T2 construct: expressed in transfected cells; host or cells: CHO-K1 cells
T2 sequence (P25021 whole entry): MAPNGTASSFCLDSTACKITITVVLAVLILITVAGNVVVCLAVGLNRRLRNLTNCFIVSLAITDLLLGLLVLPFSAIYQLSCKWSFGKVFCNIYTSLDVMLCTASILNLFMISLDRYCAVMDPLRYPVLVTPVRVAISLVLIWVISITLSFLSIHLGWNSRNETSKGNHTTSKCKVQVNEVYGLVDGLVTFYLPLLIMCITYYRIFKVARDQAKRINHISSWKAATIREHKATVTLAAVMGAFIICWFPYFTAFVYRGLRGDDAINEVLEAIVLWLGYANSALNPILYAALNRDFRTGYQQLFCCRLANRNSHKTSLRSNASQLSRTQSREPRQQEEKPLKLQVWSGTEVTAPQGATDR
In short: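 This radioligand binding assay measured displacement of [125I]Aminopotentidine from recombinant human histamine H2 receptors. Compounds were dissolved in 1% DMSO vehicle. Specific binding was calculated by subtracting non-specific binding, defined using 3 μM Tiotidine, and activity was reported as percentage inhibition of that specific binding.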

[3] = system: adrenergic receptors α1D, α2A, α2B; serotonin receptor 5-HT6; dopamine receptor D2L; test: Classification of compounds (Type 1-4) from receptor binding and neurite outgrowth
[4] = target: T3, Serotonin (5-Hydroxytryptamine) 5-HT7 (Homo sapiens, UniProt P34969); test: Serotonin 5-HT7 radioligand binding ([3H]LSD); set-up: Inhibition of ligand binding, Ser. 5-HT7: concentration or dose not given beside the values; conditions: percent inhibition of specific binding
T3 construct: expressed in transfected cells; host or cells: CHO cells
T3 sequence (P34969 whole entry): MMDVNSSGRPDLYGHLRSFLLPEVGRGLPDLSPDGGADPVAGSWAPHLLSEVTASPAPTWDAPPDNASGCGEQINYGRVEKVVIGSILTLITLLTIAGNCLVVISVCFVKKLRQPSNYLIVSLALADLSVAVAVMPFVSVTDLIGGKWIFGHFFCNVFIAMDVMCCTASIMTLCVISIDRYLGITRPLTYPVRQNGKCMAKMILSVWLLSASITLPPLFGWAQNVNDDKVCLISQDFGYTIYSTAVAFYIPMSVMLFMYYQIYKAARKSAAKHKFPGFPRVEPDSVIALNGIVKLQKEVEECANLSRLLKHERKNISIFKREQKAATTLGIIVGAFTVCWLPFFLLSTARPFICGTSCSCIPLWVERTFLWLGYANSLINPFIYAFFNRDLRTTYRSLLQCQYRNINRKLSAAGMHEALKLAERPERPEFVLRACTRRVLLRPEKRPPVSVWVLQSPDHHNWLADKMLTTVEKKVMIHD
Experimental: Lysergic acid diethylamide (LSD) for 2 hours at 25° C. […] Receptor proteins were filtered and washed, the filters were then counted to determine [^3H]LSD specifically bound. […] Biochemical assay results are presented as the percent inhibition of specific binding in Table 6.

[5] = target: T4, human recombinant adrenergic α2A receptor (Homo sapiens, UniProt P08913); test: Adrenergic α2A radioligand binding ([3H]MK-912); set-up: Inhibition of ligand binding, Adren. alpha2A: concentration or dose not given beside the values; conditions: percent inhibition of specific binding
T4 construct: expressed in transfected cells; host or cells: insect Sf9 cells
T4 sequence (P08913 1-465): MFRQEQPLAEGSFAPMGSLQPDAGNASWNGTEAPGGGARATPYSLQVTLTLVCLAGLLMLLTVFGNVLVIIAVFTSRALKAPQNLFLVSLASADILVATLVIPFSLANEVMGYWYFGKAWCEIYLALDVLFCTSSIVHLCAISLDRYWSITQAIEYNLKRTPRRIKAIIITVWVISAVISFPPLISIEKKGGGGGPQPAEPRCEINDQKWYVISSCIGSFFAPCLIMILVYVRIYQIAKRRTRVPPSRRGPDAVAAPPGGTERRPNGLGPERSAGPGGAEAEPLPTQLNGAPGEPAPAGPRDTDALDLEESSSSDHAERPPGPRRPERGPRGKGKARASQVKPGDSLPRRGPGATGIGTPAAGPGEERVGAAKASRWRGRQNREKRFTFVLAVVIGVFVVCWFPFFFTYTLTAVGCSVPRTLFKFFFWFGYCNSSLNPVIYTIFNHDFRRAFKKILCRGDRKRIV
In short: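 Membranes from Sf9 cells expressing the receptor were incubated with 1 nM [3H]MK-912 for 60 minutes at 25° C in 50 mM Tris-HCl pH 7.4, 12.5 mM MgCl2, 2 mM EDTA. 10 μM WB-4101 defined non-specific binding. Values are percent inhibition of specific bound radioactivity after filtration.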

[6] = percent inhibition of specific binding, screened at 1 μM

SMILES | Inhibition of ligand binding, Ser. 5-HT2C [1] [%] | inhibition at 1 µM [2, 6] [%] | compound type (classification by receptor binding profile and neurite outgrowth) [3] | Inhibition of ligand binding, Ser. 5-HT7 [4] [%] | Inhibition of ligand binding, Adren. alpha2A [5] [%] | inhibition at 1 µM [2] [%]
Cc1ccc(CCn2c3c(c4cc(Cl)ccc42)CN(C)CC3)cc1 [Compound 43] | 100 | 100 | Type one | 92 | 100 | 
CN1CCc2c(c3cc(Cl)ccc3n2CCc2ccc(Cl)cc2)C1 [Compound 45, 5-(4-chlorophenethyl)-8-chloro-2,3,4,5-tetrahydro-2-methyl-1H-pyrido[4,3-b]indole] | 97 | 98 | Type one | 99 | 100 | 
Cc1ccc(CCn2c3c(c4cc(C(F)(F)F)ccc42)CN(C)CC3)cc1 [Compound 47] | 89 | 78 | Type one | 92 | 98 | 
CN1CCc2c(c3cc(Cl)ccc3n2CCc2ccncc2)C1 [Compound 56] | 87 | 76 | Type one | 91 | 95 | 
Cc1ccc2c(c1)c1c(n2CCc2ccc(C(F)(F)F)nc2)CCN(C)C1 [Compound 68] | 78 | 49 | Type one | 103 | 94 | 
CN1CCc2c(c3cccc(Cl)c3n2CCc2ccccc2)C1 [Compound 83] | 99 | 97 | Type one | 95 | 100 | 
CN1CCc2c(c3cc(Cl)ccc3n2CCc2ccc(F)cc2)C1 [Compound 162, 5-(4-fluorophenethyl)-8-chloro-2,3,4,5-tetrahydro-2-methyl-1H-pyrido[4,3-b]indole] | 94 | 94 | Type one | 94 | 99 | 
Cc1ccc(CCn2c3c(c4cc(Cl)ccc42)CN(C)CC3)cn1 [Compound 225, 8-chloro-2,3,4,5-tetrahydro-2-methyl-5-(2-(6-methylpyridin-3-yl)ethyl)-1H-pyrido[4,3-b]indole] | 91 |  | Type one |  | 91 | 72
CCc1ccc2c(c1)c1c(n2CCc2ccc(C)nc2)CCN(C)C1 [Compound 357, 8-Ethyl-2-methyl-5-[2-(6-methyl-pyridin-3-yl)-ethyl]-2,3,4,5-tetrahydro-1H-pyrido[4,3-b]indole] | 67 | 68 | Type one |  | 91 | 
Cc1ccc2c(c1)c1c(n2CCc2ccc(C(C)C)nc2)CCN(C)C1 [Compound 360, 5-[2-(6-Isopropyl-pyridin-3-yl)-ethyl]-2,8-dimethyl-2,3,4,5-tetrahydro-1H-pyrido[4,3-b]indole] | 83 | 75 | Type one | 91 | 101 | 
CCc1ccc(CCn2c3c(c4cc(Cl)ccc42)CN(C)CC3)cn1 [Compound 371, 8-Chloro-5-[2-(6-ethyl-pyridin-3-yl)-ethyl]-2-methyl-2,3,4,5-tetrahydro-1H-pyrido[4,3-b]indole] | 87 | 74 | Type one |  | 89 | 
CC(C)c1ccc(CCn2c3c(c4cc(Cl)ccc42)CN(C)CC3)cn1 [Compound 372, 8-Chloro-5-[2-(6-isopropyl-pyridin-3-yl)-ethyl]-2-methyl-2,3,4,5-tetrahydro-1H-pyrido[4,3-b]indole] | 77 | 82 | Type one | 94 | 100 | 
Cc1ccc(CCn2c3c(c4cc(Cl)c(F)cc42)CN(C)CC3)cn1 [Compound 404, 8-Chloro-7-fluoro-2-methyl-5-[2-(6-methyl-pyridin-3-yl)-ethyl]-2,3,4,5-tetrahydro-1H-pyrido[4,3-b]indole] | 78 | 88 | Type one |  | 94 | 
Cc1ccc2c(c1)c1c(n2CCc2cncc(Cl)c2)CCN(C)C1 [Compound 443, 5-(2-(5-chloropyridin-3-yl)ethyl)-2,3,4,5-tetrahydro-2,8-dimethyl-1H-pyrido[4,3-b]indole] | 95 | 94 | Type one |  | 87 | 
CN1CCc2c(c3cc(Cl)ccc3n2CCc2cncc(Cl)c2)C1 [Compound 444, 8-chloro-5-(2-(5-chloropyridin-3-yl)ethyl)-2,3,4,5-tetrahydro-2-methyl-1H-pyrido[4,3-b]indole] | 95 | 80 | Type one |  | 89 | 
CCCc1ccc(CCn2c3c(c4cc(C)ccc42)CN(C)CC3)cn1 [Compound 452, 2,8-Dimethyl-5-[2-(6-propyl-pyridin-3-yl)-ethyl]-2,3,4,5-tetrahydro-1H-pyrido[4,3-b]indole] | 93 | 92 | Type one | 96 | 92 | 
Cc1ccc2c(c1)c1c(n2CC(C)c2ccc(F)cc2)CCN(C)C1 (stereo not shown) [Compound 456, 5-(2-(4-fluorophenyl)propyl)-2,3,4,5-tetrahydro-2,8-dimethyl-1H-pyrido[4,3-b]indole] | 99 | 98 | Type one |  | 106 | 
CCCc1ccc(CCn2c3c(c4cc(Cl)ccc42)CN(C)CC3)cn1 [Compound 476, 8-chloro-2,3,4,5-tetrahydro-2-methyl-5-(2-(6-propylpyridin-3-yl)ethyl)-1H-pyrido[4,3-b]indole] | 96 | 96 | Type one |  | 87 | 

Reference: patent US9096591B2, “Tetracyclic compounds” (Medivation Technologies, Inc., priority 2007, dated 2015)
